Consider two compounds from ChEMBL document CHEMBL2074183, “Purification of the human apical conjugate export pump MRP2 reconstitution and functional characterization as substrate-stimulated ATPase” (Eur J Biochem, 1999).

This data set addresses ATP-binding cassette sub-family C member 2 (Homo sapiens, UniProt Q92887). The data set is described as follows: TP_TRANSPORTER: ATP hydrolysis in MRP2 reconstituted into proteoliposome. Type of data set: functional, subcellular.

ATP-binding cassette sub-family C member 2, sequence (Q92887 whole entry): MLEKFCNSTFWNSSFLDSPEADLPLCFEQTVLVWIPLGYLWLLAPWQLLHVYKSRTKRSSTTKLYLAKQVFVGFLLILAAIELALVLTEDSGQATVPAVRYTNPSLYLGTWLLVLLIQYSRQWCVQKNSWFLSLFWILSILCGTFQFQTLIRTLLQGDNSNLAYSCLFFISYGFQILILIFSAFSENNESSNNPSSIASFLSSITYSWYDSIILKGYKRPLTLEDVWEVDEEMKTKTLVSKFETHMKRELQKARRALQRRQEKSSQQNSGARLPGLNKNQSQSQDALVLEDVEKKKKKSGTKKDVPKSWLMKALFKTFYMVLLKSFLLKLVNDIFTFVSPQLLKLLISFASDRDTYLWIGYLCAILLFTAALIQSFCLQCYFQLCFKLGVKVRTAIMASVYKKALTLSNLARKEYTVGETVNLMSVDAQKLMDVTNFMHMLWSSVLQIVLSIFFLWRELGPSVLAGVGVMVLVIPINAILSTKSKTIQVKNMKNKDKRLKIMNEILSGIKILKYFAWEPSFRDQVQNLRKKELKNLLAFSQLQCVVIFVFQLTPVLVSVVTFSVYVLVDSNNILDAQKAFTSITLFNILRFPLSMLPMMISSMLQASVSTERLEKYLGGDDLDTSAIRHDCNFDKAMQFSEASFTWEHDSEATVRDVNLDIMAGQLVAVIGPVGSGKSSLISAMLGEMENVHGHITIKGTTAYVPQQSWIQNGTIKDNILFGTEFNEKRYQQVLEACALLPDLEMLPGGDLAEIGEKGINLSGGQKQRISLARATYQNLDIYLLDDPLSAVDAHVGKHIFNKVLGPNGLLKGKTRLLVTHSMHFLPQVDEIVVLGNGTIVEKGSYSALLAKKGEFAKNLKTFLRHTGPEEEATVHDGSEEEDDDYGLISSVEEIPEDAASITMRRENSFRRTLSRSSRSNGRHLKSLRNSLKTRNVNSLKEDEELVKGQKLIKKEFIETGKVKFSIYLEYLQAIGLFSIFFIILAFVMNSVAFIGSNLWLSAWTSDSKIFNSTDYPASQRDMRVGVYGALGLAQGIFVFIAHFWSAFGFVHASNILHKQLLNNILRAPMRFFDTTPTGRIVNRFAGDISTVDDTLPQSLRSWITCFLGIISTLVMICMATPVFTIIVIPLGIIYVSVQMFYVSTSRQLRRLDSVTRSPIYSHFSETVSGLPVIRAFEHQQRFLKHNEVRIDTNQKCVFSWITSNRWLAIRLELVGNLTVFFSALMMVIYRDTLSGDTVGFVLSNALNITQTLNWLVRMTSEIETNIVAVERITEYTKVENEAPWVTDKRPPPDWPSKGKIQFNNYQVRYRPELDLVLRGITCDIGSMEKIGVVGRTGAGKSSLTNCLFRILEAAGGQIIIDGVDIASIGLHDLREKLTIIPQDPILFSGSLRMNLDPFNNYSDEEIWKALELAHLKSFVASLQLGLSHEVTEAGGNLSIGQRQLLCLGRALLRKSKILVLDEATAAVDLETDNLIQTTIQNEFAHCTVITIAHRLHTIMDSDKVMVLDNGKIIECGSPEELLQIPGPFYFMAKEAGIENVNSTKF

Consider `CCCCCCCCCCSC[C@H](NC(=O)CC[C@H](N)C(=O)O)C(=O)NCC(=O)O`, for which the Activity result was “substrate [+]”.

On to `N[C@@H](CCC(=O)N[C@@H](CS)C(=O)NCC(=O)O)C(=O)O` [GLUTATHIONE], for which the Activity result is “substrate [+]”.
